The values below come from patent publication US20060194826A1, “Pharmaceutical combinations of hydrocodone and naltrexone” (EURO-CELTIQUE S.A., priority 2003, published 2006).

Data set [1] concerns subjects receiving methadone maintenance therapy. As to the kind of experiment: Double-blind crossover, subjective and physiologic opioid agonist/antagonist measures (Example 6).
The test system of data set [2] is subjects on methadone maintenance therapy. In words: Open-label naltrexone titration safety assessment (Example 6). The class given is in vivo, human. The settings on record: 2 subjects, 30 mg hydrocodone at 0 hr, naltrexone at hourly intervals, oral. The procedure: Example 6 consisted of open-label and double-blind treatment phases conducted in male and female subjects receiving daily oral methadone maintenance doses from 60 to 90 mg. The methadone maintenance dose was given to the subject the day before each scheduled period. Administration of study medication occurred no sooner than 16 hours and no later than 22 hours after the methadone maintenance dose was given. 14 subjects were enrolled in the study (2 subjects, open-label phase (ascending dose naltrexone safety assessment) and 12 subjects, double-blind phase).
The open-label phase was a safety assessment of the 2 naltrexone doses (0.75 and 2.0 mg) planned in the protocol in subjects on methadone maintenance therapy. This phase of the study consisted of a screening visit conducted up to 14 days before administration of study drug, and a naltrexone titration visit. During the naltrexone titration visit, 2 subjects were to receive 30 mg of hydrocodone and 0.125 mg of naltrexone at 0 hr, with additional doses of naltrexone, up to a cumulative dose of 2.0 mg, administered at hourly intervals over the next 4 hours. In the open-label phase, neither subject received more than a 1.0-mg cumulative dose of naltrexone before rescue with methadone was required. […]

Data set [3] has as its system healthy volunteers with hyperalgesia. As to the kind of experiment: Subjective Symptom Rating Scale and Drug Rating Questionnaire (Example 7). The data set is classed as in vivo, human. The procedure: (§1) Example 7 consisted of a single center trial conducted as a placebo-controlled, double-blind, randomized, 4-treatment, 4-period crossover study, which included a single-blind phase. Each treatment sequence consisted of 4 treatment periods, each of 4 hours duration, separated by at least a 5-day washout interval. […] The total duration of this study, including screening, was approximately 52 days.
(§2) After at least 5 days, those subjects who successfully completed the single-blind phase were randomized into the double-blind phase of the study. Healthy male and female volunteers were enrolled in this study.
(§3) The same test measurements conducted at baseline were then conducted at 0.5, 1, 2, 3, and 4 hours postdosing. Thermal Discomfort and Pain Latency testing were conducted at each time point on the control site (area on the other forearm, which was not subjected to the thermal stimulus). Testing on the control site was done prior to the test site for each time point. Each subject rested and recovered for no less than 5 days before returning for the next period. In the follow-up phase, subjects returned to the clinic within 7 days after completion of the study for a final check of the test site and a review of the subject's laboratory data prior to official discharge from the study.
The Symptom Rating Scale Questionnaire consisted of 25 items. […]

The subject of data set [4] is healthy volunteers. As to the kind of experiment: Safety and adverse events (Example 7). The class given is in vivo, human. The procedure: as §1
An AE (adverse event) was defined as any unfavorable and unintended sign (including abnormal laboratory findings), symptom or disease temporally associated with the use of a medicinal product, whether or not considered related to the medicinal product. An AE was classified as a TEAE (treatment emergent adverse event) only if the AE occurred after the first dose of the study drug was administered to a subject who was enrolled in the study. The period of observation for TEAEs was from the time that the first dose of study medication was administered until release from the study after completion of period 4 or at early discontinuation. All AEs reported by the subject or observed by the investigator/study staff were fully documented throughout the study. When AEs were encountered that required medical intervention, appropriate supportive and/or definitive therapy was provided by appropriately qualified and licensed medical personnel. […]

In data set [5] the test system is subjects receiving methadone maintenance therapy. As to the kind of experiment: Safety measures, double-blind phase (Example 6). The data set is classed as in vivo, human. The settings on record: with increasing NTX dose; most mild or moderate.
For data set [6], the system named is healthy volunteers with hyperalgesia. In words: Pupillometry (Example 7). The class given is in vivo, human. The procedure:
Each treatment sequence consisted of 4 treatment periods, each of 4 hours duration, separated by at least a 5-day washout interval. […] The total duration of this study, including screening, was approximately 52 days.
as §2, §3
Pupillometry was performed to measure the effect of the study treatment on pupil diameter. The pupil was photographed using a Polaroid One-Step Closeup Camera (Polaroid Corporation, Cambridge, Mass.) with modified 2× magnification oculars (John Hopkins University, Baltimore, Md.) and Polaroid 600 color film (Polaroid Corporation, Cambridge, Mass.). […] The camera was positioned on the subject's eye socket, aligning the iris with the middle of the opening of the lens adapter. The pupil diameter was measured from the photograph, in millimeters, using Model CD-6C Mitutoyo digital calipers (Judge Tool Sales, Southport, Conn.). The same eye was measured at all times for each subject.

For data set [7] the test system is unchanged. In words: Thermal Discomfort and Pain Latency testing (Example 7). The data set is classed as in vivo, human. The protocol: as §1, §2
A test site and a control site were selected on each forearm and marked with a washable marker. Next, the topical anesthetic was applied to the test site. After approximately 1.5 hours (allowing for the anesthetic to take effect), the cream was removed and a thermal stimulus was applied to the test site for 3 minutes using a copper mass heated to 52° C. […]
Thermal Discomfort testing was designed to measure a subject's perception of discomfort following a 5-second contact with a warmed 1″ diameter copper mass (Uniformed Services University of the Health Sciences, Bethesda, Md.). […] The distance from the left anchor to the vertical mark was measured and was used as the quantitative measure of Thermal Discomfort. […]

The subject of data set [8] is normal, healthy, adult male and female volunteers. As to the kind of experiment: Safety assessment (Example 5). The protocol:
(§4) In Example 5, a single center, placebo controlled, double-blind, randomized 9-treatment, 3 period crossover trial with an open-label screening phase was conducted.

In data set [9] the test system is minute ventilation in normal, healthy, adult male and female volunteers. As to the kind of experiment: CO2 rebreathing test, double-blind crossover trial (Example 5). The class given is in vivo, human. The following applies: oral NTX 0.125 to 8.0 mg with 15, 20 or 25 mg oral HYIR. The procedure: as §4
Setting [10] is: 0.25-mg NTX dose with 30 mg HYIR.
Where [11] appears, read: 0.5-mg NTX dose with 30 mg HYIR.

Entries after “also recorded” stand apart in the source; their conditions may differ.

`O=C1CC[C@@]2(O)[C@H]3Cc4ccc(O)c5c4[C@@]2(CCN3CC2CC2)[C@H]1O5` [NTX, Naltrexone HCI]: in data set [1] (0.25- and 0.5-mg oral NTX doses), the “aversive effects in methadone-maintained subjects” value was “elicit aversive effects”. Moreover, in [1] (setting [10]), the “negative feeling states and antagonist activity (precipitated withdrawal)” value was “threshold dose with a trend toward negative feeling states”; the “subjects requiring a rescue dose of methadone” value was “Approximately 60%”. Moreover, in data set [1] (setting [11]), the “difference from NTX placebo treatment in mean PDmax, all queries except "Feeling sick"” value is recorded as “statistically significant differences”; the “precipitated withdrawal (Drug Effects Scales, antagonist total score, pupil diameter vs NTX placebo)” value is “strong evidence of precipitated withdrawal”; the “subjects requiring a rescue dose of methadone” value is around 90%. Further, the “negative feeling states and precipitated withdrawal, dose dependence” value in [1] (NTX 0.25 and 0.5 mg with 30 mg HYIR) was “dose-dependent increases in negative feeling states and precipitated withdrawal”. In addition, in [1] (NTX 0.25 and 0.5 mg with 30 mg HYIR, not always statistically significant), the “effect on all secondary pharmacodynamic variables except the agonist total scores from the Subjective and Observer Symptom Rating Scales” value is recorded as “dose-related effect”. Moreover, the “effect on mean PDmax values for all 4 queries on the Subjective Drug Effects Scale” value in data set [1] (NTX 0.25 to 0.5 mg with 30 mg HYIR) is given as “dose-related effect”. In addition, the “appeal and abuse liability potential of HYIR” value in [1] (low dose NTX added to HYIR, subjects physically dependent on opioids) is reported as “decreased the appeal”. Also, the “cumulative dose of naltrexone received before rescue with methadone was required” value in data set [2] is recorded as at most 1.0 mg. The “subjective opioid agonist effects of HYIR (Subjective Symptom Rating Scale and Subjective Drug Rating Questionnaire)” value in data set [3] (15 mg HYIR with placebo, 0.25, 0.5 or 1.0 mg NTX) is reported as “no statistically significant differences among the treatments or consistent NTX dose-related trends”. Moreover, the “NTX dose-related effect on the subjective opioid agonist activity of the 15-mg dose of HYIR” value in data set [3] (NTX 0.25, 0.5, 1.0 mg) was “no consistent NTX dose-related effect”. Further, the “number of reported TEAEs commonly associated with opioid use” value in data set [4] (15 mg HYIR with increasing NTX dose) is recorded as “decreased with increased NTX dose”. The safety concerns entry in data set [4] (15 mg of oral HYIR combined with 0.25, 0.5, or 1.0-mg NTX) is “no safety concerns”. The “treatment-emergent adverse events commonly associated with opioid withdrawal per subject” value in [5] is given as “increase in the number of treatment-emergent adverse events”. In addition, in [6] (HYIR+0.5 mg NTX and HYIR+1.0-mg NTX), the “statistically significant increase in pupil diameter PDmax compared with HYIR+placebo NTX” value was “not”. The “NTX dose-related effect on the physiologic opioid agonist activity of the 15-mg dose of HYIR” value in data set [6] (NTX 0.25, 0.5, 1.0 mg) is recorded as “no consistent NTX dose-related effect”. Besides, the HYIR-induced pupil constriction entry in data set [6] (all NTX doses (0.25, 0.5, 1.0 mg) with 15 mg HYIR) was “reduced HYIR-induced pupil constriction”. In addition, in data set [7] (15 mg HYIR + 0.25-, 0.5-, or 1.0-mg NTX, oral), the “difference vs HYIR+placebo NTX in mean Thermal Discomfort VAS scores, Pain Latency, derived pharmacodynamic metrics of hyperalgesia” value is reported as “no statistically significant differences”. Further, the “reduction of the analgesia produced by 15 mg oral HYIR (Thermal Discomfort VAS scores and Pain Latency testing)” value in data set [7] (NTX 0.25, 0.5, or 1.0-mg) is recorded as “None of the doses of NTX used in this study (0.25, 0.5, or 1.0-mg) produced a statistically significant reduction”. The safety concerns entry in data set [8] (NTX 0.125 to 8.0 mg combined with 15, 20 or 25 mg HYIR) is “no new safety concerns”. Also, the “effect on HYIR-induced respiratory depression (% MPE20, % MPE30, double-blind MPE20 and MPE30)” value in data set [9] is recorded as “statistically significant trend toward less respiratory depression; also recorded: blocked respiratory depression”.
For `COc1ccc2c3c1O[C@H]1C(=O)CC[C@H]4[C@@H](C2)N(C)CC[C@]314.O=C(O)C(O)C(O)C(=O)O` [HYIR, Hydrocodone bitartrate], in [1] (30 mg HYIR plus NTX placebo), the “changes from predose in all pharmacodynamic variables” value is “minimal changes from predose” and the “subjects requiring a rescue dose of methadone” value is reported as 4 of the 12. For the same molecule, the “subjective or physiologic opioid agonist activity” value in data set [1] (30-mg oral dose of HYIR) is recorded as “did not produce significant subjective or physiologic opioid agonist activity”. For the same molecule, in data set [1] (HYIR+NTX placebo treatment), the “trend of treatment means (PDmax and AUC) over the 3 periods, FIGS. 1-12” value is “increase in subjective and physiologic opioid agonist effects”. In addition, the safety concerns entry in [8] (15-, 20-, or 25-mg doses of HYIR) is “no new safety concerns”.
